# *1 amine or outer side, *2 acyl side, *3 side chain or, on linkers, in order; H or OH if unused. Where a SMILES comes first, the peptide text is derived from it. [ ]: non-standard residue; d: D form. The star is where a group is joined. Ava(2S,3R-(OH)2,4S-OMe) = CO[C@@H](CN[*:1])[C@H](O)[C@H](O)C(=O)[*:2]; dHis(βS-OH,π-Me) = Cn1cncc1[C@@H](O)[C@@H](N)C(=O)O; Butanoyl(2R-OH,3S-OH) = C[C@H](O)[C@@H](O)C(=O)*; Val(3-OH) = CC(C)(O)[C@H](N)C(=O)O; NMeF = CN[C@@H](Cc1ccccc1)C(=O)O
# Experiments:
# [1] = system: mice infected with E. coli ATCC35218; assay type: in vivo; details: i.v. 20 mg kg^−1 Corramycin in E. coli mouse infection model
# Procedure: As bacterial resistance development in minimal media is thought to be more mimetic to an actual infection in vivo, we decided to test the in vivo efficacy of Corramycin in infected mice, despite the poor FoR experiment results in the rich medium. The mice were first infected intraperitoneally with E. coli ATCC35218 and subsequently treated with different doses of Corramycin ranging from a total of 10 to 30 mg per kg body weight divided into two doses, 1 hour and 3 hours after infection.
# Figure 4 In vivo antibacterial activity of Corramycin in infected mice. A) Colony forming unit (CFU) load of E. coli ATCC35218 in blood 4 hours post infection with 2.10^7 CFU. 5 mice per dose were used. […]; Tienam: Imipenem/Cilastatin treatment (positive control, dark grey bar); Corramycin treatment with different doses (light blue, blue and dark blue bars). B) Survival rate [in %] of 10 mice per dose 3, 6, 24, 48, 72 and 96 hours post infection.
# 13.2 Complementation of SbmA and YejEF in the E. coli deletion mutant […]
# 14.1 Infection of the test animals and treatment with Corramycin in vivo For the in vivo infection and antibiotic treatment experiments a total of 75 male Swiss albino mice, divided into five groups with 15 animals, were used. Before infecting the test animals, the weight of each animal was determined (Suppl. Raw Data 1). […]
# [2] = system: Escherichia coli ATCC35218; assay type: cell-based; details: strain ATCC35218; CAMHB, CLSI/EUCAST broth microdilution, 5x10^5 CFU mL-1, 20-22 h, duplicates
# Procedure: (§1) 5. Determination of the minimal inhibitory concentration (MIC) in vitro The MIC of Corramycin was evaluated following the Clinical & Laboratory Standard Institute (CLSI; https://clsi.org) and EUCAST (https://eucast.org) guidelines. First, inoculi of the bacterial test strains were prepared by culturing isolated colonies in cation-adjusted Müller Hinton broth (CAMHB; 2 g L-1 beef infusion solids, 1.5 g L-1 starch, 17.5 g L-1 casein hydrolysates, final pH 7.4) at 37 °C and 180 rpm for 18 h. Next, Corramycin, which was dissolved in DMSO, was transferred into the first row of a 96-well plate to reach an end concentration of 64 µg mL-1 (in 100 µL total volume). A 1:1 serial dilution in cation-adjusted Mueller Hinton broth (CAMHB) of the test compound was done from the top row to the bottom row of the 96-well plate to reach an end concentration of 0.125 µg mL-1 in the bottom row. Afterwards, the respective test strains were transferred into the wells, reaching a total volume of 100 µL and 5x10^5 colony-forming units (CFU) mL-1. After a 20 to 22 h of incubation, the optical density was evaluated on a microplate reader and the MIC endpoint was determined as the lowest concentration of antibiotic at which there was no visible growth observed. Each MIC experiment was performed in duplicates. Table S 4 depicts the MIC values of Corramycin against all bacterial strains tested in this study.
# (§2) Table S 4. MIC values of Corramycin against all bacterial strains tested in this study. […]
# [3] = system: Enterobacter cloacae DSM46348; assay type: cell-based; details: strain DSM46348; CAMHB, CLSI/EUCAST broth microdilution, 5x10^5 CFU mL-1, 20-22 h, duplicates
# Procedure: as §1, §2
# [4] = system: Escherichia coli NCTC13441; assay type: cell-based; details: strain NCTC13441; CAMHB, CLSI/EUCAST broth microdilution, 5x10^5 CFU mL-1, 20-22 h, duplicates
# Procedure: as §1, §2
# [5] = system: Enterococcus faecium A6349; assay type: cell-based; details: strain A6349; CAMHB, CLSI/EUCAST broth microdilution, 5x10^5 CFU mL-1, 20-22 h, duplicates
# Procedure: as §1, §2
# [6] = system: Escherichia coli MG1655 WT; assay type: cell-based; details: strain MG1655 WT; CAMHB, CLSI/EUCAST broth microdilution, 5x10^5 CFU mL-1, 20-22 h, duplicates
# Procedure: as §1, §2
# [7] = system: Enterobacter cloacae 17059482; assay type: cell-based; details: strain 17059482; CAMHB, CLSI/EUCAST broth microdilution, 5x10^5 CFU mL-1, 20-22 h, duplicates
# Procedure: as §1, §2
smiles,measurement,setting,value
"CO[C@@H](CNC(=O)[C@H](NC(=O)[C@H](O)[C@H](C)O)[C@H](O)c1cncn1C)[C@H](O)[C@H](O)C(=O)N(C)[C@@H](Cc1ccccc1)C(=O)NCC(=O)N[C@H](C(=O)N[C@@H](CO)C(=O)N[C@H](C(=O)N[C@@H](CC(C)C)C(=O)N[C@@H](CO)C(=O)O)C(C)(C)O)C(C)(C)O [Corramycin] ({Butanoyl(2R-OH,3S-OH)}-[dHis(βS-OH,π-Me)][Ava(2S,3R-(OH)2,4S-OMe)][NMeF]G[Val(3-OH)]S[Val(3-OH)]LS-OH)",Toxic side effects in mice,[1],without toxic side effects
same,Cytotoxicity,mammalian cell lines,no cytotoxicity
same,MIC,[2],1 to 4 µg/mL
same,MIC,[3],32 µg/mL
same,MIC,[4],4 µg/mL
same,MIC,[5],>64 µg/mL
same,MIC,[6],8 to 16 µg/mL
same,MIC,[7],>64 µg/mL

# Reference: article PMC10099666, “Structure Elucidation, Total Synthesis, Antibacterial In Vivo Efficacy and Biosynthesis Proposal of Myxobacterial Corramycin” (Angewandte Chemie (International Ed. in English), 2022)
